Each molecule was assayed against T1, PDGFRB(DKIN) (PDGFR-β) (Homo sapiens, UniProt P09619) (assay: Phage-display competitive binding assay, PDGFRB(DKIN)). Conditions: T7 phage displaying human PDGFR-β, DKIN construct; read-out: Binding Assay: PDGFRB(DKIN).
T1 construct: PDGFRB(DKIN)
Experimental: The term “ND” represents non-determined values.
Briefly, T7 phage displaying human PDGFR-β were incubated with an affinity matrix coated with known PDGFR-β inhibitor in the presence of various concentrations of the soluble competitor molecules.

SMILES | Kd
CC(C)(C)c1cc(NC(=O)Nc2ccc(OCCN3CCOCC3)c3ccccc23)no1 [Compound K1] | 100 to 1000 nM
CC(C)(C)c1cc(NC(=O)Nc2ccc(NC(=O)c3cn4cc(Cl)ccc4n3)cc2)no1 [Compound N3] | < 100 nM
CC(C)(C)c1cc(NC(=O)Nc2ccc(NC(=O)c3cccc(Cl)n3)cc2)no1 [Compound N4] | < 100 nM
Cn1nc(-c2ccccc2)c2cc(C(=O)Nc3ccc(NC(=O)Nc4cc(C(C)(C)C)[nH]n4)cc3)[nH]c21 [Compound N5] | 100 to 1000 nM
CC(C)(C)c1cc(NC(=O)Nc2ccc(NC(=O)c3ncccc3C(N)=O)cc2)n[nH]1 [Compound N6] | 100 to 1000 nM
CC(C)(C)c1cc(NC(=O)Nc2ccc(NC(=O)c3cc([N+](=O)[O-])ccn3)cc2)no1 [Compound N7] | < 100 nM
CC(C)(C)c1cc(NC(=O)Nc2ccc(NC(=O)c3cccc(F)n3)cc2)no1 [Compound N8] | < 100 nM
CC(C)(C)c1cc(NC(=O)Nc2ccc(NC(=O)c3cn4nc(Cl)ccc4n3)cc2)no1 [Compound N9] | < 100 nM
Cn1nc(C(C)(C)C)cc1C(=O)Nc1ccc(NC(=O)Nc2cc(C(C)(C)C)on2)cc1 [Compound N10] | 100 to 1000 nM
Cn1nc(-c2ccccc2)c(C(=O)Nc2ccc(NC(=O)Nc3cc(C(C)(C)C)on3)cc2)c1Cl [Compound N11] | > 10000 nM
COC(=O)c1ccc(C(=O)Nc2ccc(NC(=O)Nc3cc(C(C)(C)C)on3)cc2)nc1 [Compound N12] | 100 to 1000 nM
CC(C)(C)c1cc(NC(=O)Nc2ccc(NC(=O)C3=NCC=N3)cc2)no1 [Compound N13] | < 100 nM
CC(C)(C)c1cc(NC(=O)Nc2ccc(NC(=O)c3csnn3)cc2)no1 [Compound N14] | 100 to 1000 nM
Cc1nc(C(=O)Nc2ccc(NC(=O)Nc3cc(C(C)(C)C)on3)cc2)nn1-c1cc(Cl)cc(Cl)c1 [Compound N15] | 100 to 1000 nM
CC(C)(C)c1cc(NC(=O)Nc2ccc(NC(=O)c3csc(-c4ccncc4)n3)cc2)no1 [Compound N16] | < 100 nM
CC(C)(C)c1cc(NC(=O)Nc2ccc(NC(=O)c3cc4cc(Br)ccc4s3)cc2)no1 [Compound N17] | < 100 nM
Cc1nnsc1C(=O)Nc1ccc(NC(=O)Nc2cc(C(C)(C)C)on2)cc1 [Compound N18] | 100 to 1000 nM
CC(C)(C)c1cc(NC(=O)Nc2ccc(NC(=O)c3c[nH]c(=O)nc3-c3ccncc3)cc2)no1 [Compound N19] | 1000 to 10000 nM
Cn1cc(C(=O)Nc2ccc(NC(=O)Nc3cc(C(C)(C)C)on3)cc2)c(C(F)(F)F)n1 [Compound N20] | 100 to 1000 nM
COc1nc(C)cc(C)c1C(=O)Nc1ccc(NC(=O)Nc2cc(C(C)(C)C)on2)cc1 [Compound N22] | 100 to 1000 nM
CC(C)(C)c1cc(NC(=O)Nc2ccc(NC(=O)c3ccccc3Cl)cc2)no1 [Compound N23] | < 100 nM
CC(C)(C)c1cc(NC(=O)Nc2ccc(NC(=O)c3cccc(Br)c3)cc2)no1 [Compound N24] | 1000 to 10000 nM
CC(C)(C)c1cc(NC(=O)Nc2ccc(NC(=O)c3cccc(OC(F)F)c3)cc2)no1 [Compound N25] | 100 to 1000 nM
CC(C)(C)c1cc(NC(=O)Nc2ccc(NC(=O)c3ccc4ccccc4c3)cc2)no1 [Compound N28] | < 100 nM
CC(C)(C)c1cc(NC(=O)Nc2ccc(NC(=O)c3cc(Cl)cc(Cl)c3)cc2)no1 [Compound N29] | 100 to 1000 nM

SMILES | Kd
CCc1ccc(C(=O)Nc2ccc(NC(=O)Nc3cc(C(C)(C)C)on3)cc2)cc1 [Compound N32] | < 100 nM
CC(C)(C)c1cc(NC(=O)Nc2ccc(NC(=O)c3ccccc3)cc2)no1 [Compound N34] | < 100 nM
CC(C)(C)c1cc(NC(=O)Nc2ccc(NC(=O)Cc3ccccc3)cc2)no1 [Compound N35] | 100 to 1000 nM
CC(C)(C)c1cc(NC(=O)Nc2ccc(NC(=O)c3c(F)cccc3F)cc2)no1 [Compound N37] | 1000 to 10000 nM
CC(C)(C)c1cc(NC(=O)Nc2ccc(NC(=O)Cc3ccc(-c4ccccc4)cc3)cc2)no1 [Compound N38] | 100 to 1000 nM
Cc1[nH]c(C(=O)Nc2ccc(NC(=O)Nc3cc(C(C)(C)C)on3)cc2)c(C)c1CCC(=O)O [Compound N39] | < 100 nM
CC(C)(C)c1cc(NC(=O)Nc2ccc(NC(=O)/C=C/c3ccccc3Cl)cc2)no1 [Compound N40] | 100 to 1000 nM
Cc1cccnc1C(=O)Nc1ccc(NC(=O)Nc2cc(C(C)(C)C)on2)cc1 [Compound N41] | < 100 nM
CC(C)(C)c1cc(NC(=O)Nc2ccc(NC(=O)C(N)Cc3ccccc3F)cc2)no1 (stereo not drawn) [Compound N42] | 100 to 1000 nM
CC(=O)c1c[nH]c(C(=O)Nc2ccc(NC(=O)Nc3cc(C(C)(C)C)on3)cc2)c1 [Compound N43] | < 100 nM
CC(C)(C)c1cc(NC(=O)Nc2ccc(NC(=O)CC(N)c3ccccc3Cl)cc2)no1 (stereo not drawn) [Compound N44] | 1000 to 10000 nM
CC(C)(C)c1cc(NC(=O)Nc2ccc(NC(=O)c3cnn(-c4cccc(Cl)c4)c3Br)cc2)no1 [Compound N45] | 100 to 1000 nM
COc1cc(OC)nc(Oc2ccccc2C(=O)Nc2ccc(NC(=O)Nc3cc(C(C)(C)C)on3)cc2)n1 [Compound N47] | 100 to 1000 nM
COc1cc(OC)nc(Nc2cccc(C(=O)Nc3ccc(NC(=O)Nc4cc(C(C)(C)C)on4)cc3)c2)n1 [Compound N49] | 100 to 1000 nM
COc1ccnc(Nc2ccc(C(=O)Nc3ccc(NC(=O)Nc4cc(C(C)(C)C)on4)cc3)cc2)n1 [Compound N51] | < 100 nM
COc1cc(OC)nc(N(C)c2cccc(C(=O)Nc3ccc(NC(=O)Nc4ccon4)cc3)c2)n1 [Compound N53] | 100 to 1000 nM
CC(C)(C)c1cc(NC(=O)Nc2ccc(NC(=O)c3cc(N4CCOCC4)nc(N4CCOCC4)n3)cc2)no1 [Compound N54] | < 100 nM
Cc1nc(C(=O)Nc2ccc(NC(=O)Nc3cc(C(C)(C)C)on3)cc2)c(C(F)(F)F)o1 [Compound N55] | 100 to 1000 nM
COc1cc(OC)nc(Oc2cccnc2C(=O)Nc2ccc(NC(=O)Nc3cc(C(C)(C)C)on3)cc2)n1 [Compound N56] | 1000 to 10000 nM
CC(C)c1cc(NC(=O)Nc2ccc(NC(=O)C3CCN(c4ncc(C(F)(F)F)cc4Cl)CC3)cc2)no1 [Compound N59] | 100 to 1000 nM
CC(C)(C)c1cc(NC(=O)Nc2ccc(NC(=O)c3cc4cccc5c4n(c3=O)CC5)cc2)no1 [Compound N60] | < 100 nM
CC(C)(C)c1cc(NC(=O)Nc2ccc(NC(=O)c3cc4cccnc4nc3C(F)(F)F)cc2)no1 [Compound N61] | 1000 to 10000 nM
CC(C)(C)c1cc(NC(=O)Nc2ccc(NC(=O)C3=Cc4cc(F)cc(S(C)(=O)=O)c4C3)cc2)no1 [Compound N62] | 1000 to 10000 nM
Cn1nc(C(F)(F)F)c2cc(C(=O)Nc3ccc(NC(=O)Nc4cc(C(C)(C)C)on4)cc3)sc21 [Compound N64] | > 10000 nM
CC(=O)c1ccc(N2CCC(C(=O)Nc3ccc(NC(=O)Nc4cc(C(C)(C)C)on4)cc3)CC2)cc1 [Compound N65] | 100 to 1000 nM

SMILES | Kd
CC(C)(C)c1cc(NC(=O)Nc2ccc(NC(=O)Cc3oc(-c4ccc(Cl)cc4)nc3-c3ccccc3)cc2)no1 [Compound N66] | 100 to 1000 nM
Cn1nc(C(F)(F)F)c(C(=O)Nc2ccc(NC(=O)Nc3cc(C(C)(C)C)on3)cc2)c1Cl [Compound N68] | 100 to 1000 nM
CC(C)(C)c1cc(NC(=O)Nc2ccc(NC(=O)c3ccccc3O)cc2)no1 [Compound N69] | 1000 to 10000 nM
COc1cc(OC)nc(Oc2ccccc2C(=O)Nc2ccc(NC(=O)Nc3cc(C(C)(C)C)on3)cc2)n1 [Compound N70] | 1000 to 10000 nM
CC(C)(C)c1cc(NC(=O)Nc2ccc(NC(=O)c3nnsc3Oc3ccc(Cl)cc3)cc2)no1 [Compound N71] | 1000 to 10000 nM
CC(C)(C)c1cc(NC(=O)Nc2ccc(NC(=O)CSCC(=O)Nc3ccccc3)cc2)no1 [Compound N72] | 100 to 1000 nM
C=N/C(=N\C)Oc1cccc(C(=O)Nc2ccc(NC(=O)Nc3cc(C(C)(C)C)on3)cc2)c1 [Compound N74] | < 100 nM
CC(C)c1oc(Cl)nc1C(=O)Nc1ccc(NC(=O)Nc2cc(C(C)(C)C)on2)cc1 [Compound N75] | < 100 nM
CC(C)(C)c1cc(NC(=O)Nc2ccc(NC(=O)c3ccc(-n4cc(-c5ccncn5)cn4)cc3)cc2)no1 [Compound N76] | 100 to 1000 nM
CC(C)(C)c1cc(C(=O)Nc2ccc(NC(=O)Nc3cc(C(C)(C)C)on3)cc2)n(-c2ccccc2)n1 [Compound N78] | 1000 to 10000 nM
CC(=O)Oc1cccnc1C(=O)Nc1ccc(NC(=O)Nc2cc(C(C)(C)C)on2)cc1 [Compound N79] | < 100 nM
CC(C)(C)c1cc(NC(=O)Nc2ccc(NC(=O)Cc3noc4ccccc34)cc2)no1 [Compound N80] | < 100 nM
CC(C)(C)c1cc(NC(=O)Nc2ccc(NC(=O)c3cccc[n+]3[O-])cc2)no1 [Compound N81] | < 100 nM
CC(C)(C)c1cc(NC(=O)Nc2ccc(NC(=O)c3nocc3C(C)(C)C)cc2)no1 [Compound N82] | 100 to 1000 nM
CCOC(=O)CCc1c(C)[nH]c(C(=O)Nc2ccc(NC(=O)Nc3cc(C(C)(C)C)on3)cc2)c1C [Compound N83] | < 100 nM
Cc1ccc(NC(=O)c2ccc(NC(=O)Nc3cc(C(C)(C)C)on3)cc2)cc1 [Compound N84] | < 100 nM
CNC(=O)c1ccc(NC(=O)Nc2cc(C(C)(C)C)on2)cc1 [Compound N85] | 100 to 1000 nM
CC(C)(C)c1cc(NC(=O)Nc2ccc(C(N)=O)cc2)no1 [Compound N86] | 100 to 1000 nM
CC(C)(C)c1cc(NC(=O)Nc2ccc(C(=O)NCCO)cc2)no1 [Compound N87] | 100 to 1000 nM
C[C@H](NC(=O)c1ccc(NC(=O)Nc2cc(C(C)(C)C)on2)cc1)c1ccccc1 [Compound N88] | 100 to 1000 nM
CC(C)(C)c1cc(NC(=O)Nc2ccc(C(=O)NCc3ccccc3)cc2)no1 [Compound N89] | 100 to 1000 nM
CC(C)(C)c1cc(NC(=O)Nc2ccc(C(=O)Nc3ccccc3)cc2)no1 [Compound N90] | 100 to 1000 nM
CC(C)(C)c1cc(NC(=O)Nc2ccc(NC(=O)C3CCCCC3)cc2)no1 [Compound N91] | 100 to 1000 nM
Cc1ccc(C(=O)Nc2ccc(NC(=O)Nc3cc(C(C)(C)C)on3)cc2)cc1 [Compound N92] | < 100 nM

Same assay, conditions: read-out: Binding Assay: PDGFRB(DKIN); T7 phage displaying human PDGFR-β, DKIN construct

SMILES | Kd
CC(C)(C)c1cc(NC(=O)Nc2ccc(NC(=O)c3cn4c(n3)sc3ccccc34)cc2)no1 [Compound N73] | < 100 nM

From patent US20050197371A1, “Urea derivatives as PDGFR modulators” (Ambit Biosciences Corporation, priority 2003, published 2005)
